Data from patent publication US12509459B2, “Inhibitors of NLRP3 inflammasome” (BioAge Labs, Inc., priority 2024, dated 2025).

The molecules below were run against NLRP3 (Homo sapiens, UniProt Q96P20) (assay: THP-1 cell-based NLRP3 activation assay). Details: PMA-differentiated THP-1 cells, LPS 100 ng/mL then 10 μM nigericin.
Design: endogenous in cells; host or cells: THP-1 cells (PMA-differentiated, LPS-primed, nigericin-stimulated)
Procedure: THP-1 cells are cultured in complete media (CM) until they reach logarithmic growth and achieve a viability >90%. CM is composed of RPMI-1640 (+Glutamax)/10% fetal bovine serum/55 μM β-mercaptoethanol/pen/strep. Cells are spun down and resuspended to 1,000,000 cells/mL in CM containing either 20 nM or 500 nM PMA. 150,000 cells (150 μL) are then added to each well of a 96-well TC plate and incubated for either 24 hr or 3 hr, respectively, in a standard cell culture incubator (37° C.; 5% CO2). After this incubation, the plate is tilted and media carefully removed. 200 μL of CM containing 100 ng/mL LPS is then added to the wells and the cells incubated an additional 3 hrs. The media is again removed and replaced with Opti-Mem medium containing pre-determined dilutions of test compounds in replicate wells. After a 30 min incubation, 10 μM nigericin (final concentration) in Opti-Mem medium with the corresponding concentration of compound is added to the wells for an additional 1 hr. Positive control wells contain 10 μM nigericin in Opti-Mem in the absence of test compound, while negative control wells contain Opti-Mem only. […] Once supernatants are removed, the relative viability of adherent cells in the 96-well TC plate are determined using a CellTiter-Glo® luminescent cell viability assay (Promega).

Sequence of NLRP3 (Q96P20 whole entry): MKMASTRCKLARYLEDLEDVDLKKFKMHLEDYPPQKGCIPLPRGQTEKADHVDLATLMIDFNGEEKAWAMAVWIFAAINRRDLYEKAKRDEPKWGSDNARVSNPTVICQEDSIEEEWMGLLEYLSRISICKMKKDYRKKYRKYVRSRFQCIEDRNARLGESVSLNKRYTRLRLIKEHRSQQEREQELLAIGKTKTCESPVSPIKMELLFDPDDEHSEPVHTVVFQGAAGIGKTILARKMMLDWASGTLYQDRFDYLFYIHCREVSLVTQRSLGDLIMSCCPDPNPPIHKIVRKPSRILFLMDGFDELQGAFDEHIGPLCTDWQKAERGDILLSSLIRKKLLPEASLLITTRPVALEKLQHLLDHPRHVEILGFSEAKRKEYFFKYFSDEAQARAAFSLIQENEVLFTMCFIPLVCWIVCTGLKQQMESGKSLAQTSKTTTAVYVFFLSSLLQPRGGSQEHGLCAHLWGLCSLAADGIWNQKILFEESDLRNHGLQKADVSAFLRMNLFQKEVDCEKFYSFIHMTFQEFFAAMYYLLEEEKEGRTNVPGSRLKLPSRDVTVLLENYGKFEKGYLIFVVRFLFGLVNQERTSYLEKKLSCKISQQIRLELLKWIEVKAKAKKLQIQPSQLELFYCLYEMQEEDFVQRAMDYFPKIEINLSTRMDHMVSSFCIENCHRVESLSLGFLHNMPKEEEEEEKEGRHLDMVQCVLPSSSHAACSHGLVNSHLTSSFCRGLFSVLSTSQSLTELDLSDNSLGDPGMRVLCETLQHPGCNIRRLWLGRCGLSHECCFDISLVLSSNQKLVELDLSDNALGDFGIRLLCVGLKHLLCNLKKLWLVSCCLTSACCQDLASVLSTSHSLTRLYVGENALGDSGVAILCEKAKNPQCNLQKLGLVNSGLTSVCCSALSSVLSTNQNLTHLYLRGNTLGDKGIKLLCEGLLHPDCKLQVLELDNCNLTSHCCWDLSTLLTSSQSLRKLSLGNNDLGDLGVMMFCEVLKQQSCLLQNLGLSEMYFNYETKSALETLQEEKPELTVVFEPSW

`CCOc1cc(C(=O)N(C)[C@H](c2cncc3cn[nH]c23)[C@H]2CCNC2)ccc1-c1cccc(F)c1` (single isomer, unassigned) [Compound 085] and `CCOc1cc(C(=O)N(C)[C@@H](c2cncc3cn[nH]c23)[C@@H]2CCNC2)ccc1-c1cccc(F)c1` (single isomer, unassigned) [Compound 087] cannot be ordered by IC50: less than 0.1 µM for the first, less than 0.1 µM for the second.

First: CCOc1cc(C(=O)N(C)[C@H](c2cncc3cn[nH]c23)[C@@H]2CCNC2)ccc1-c1cccc(F)c1 (single isomer, unassigned) [Compound 088]
Second: CCOc1cc(C(=O)N(C)[C@@H](c2cncc3cn[nH]c23)[C@H]2CCNC2)ccc1-c1cccc(F)c1 (single isomer, unassigned) [Compound 089]
The IC50 of the first is higher: 0.1 to 0.5 µM for the first, less than 0.1 µM for the second. The second is the more potent here.

`CCOc1cc(C(=O)N(C)[C@H](CO)c2cncc3cn[nH]c23)ccc1-c1cccc(F)c1` [Compound 001] and `CCOc1cc(C(=O)N(C)[C@@H](CCO)c2cncc3cn[nH]c23)ccc1-c1cccc(F)c1` [Compound 009] cannot be ordered by IC50: less than 0.1 µM for the first, less than 0.1 µM for the second.

`CCOc1cc(C(=O)N(C)[C@H](CO)c2cncc3cn[nH]c23)ccc1-c1cc(F)cc(F)c1` [Compound 002] and `CCOc1cc(C(=O)N(C)[C@H](CO)c2cncc3cn[nH]c23)ccc1-c1cc(C)cc(F)c1` [Compound 003] cannot be ordered by IC50: less than 0.1 µM for the first, less than 0.1 µM for the second.

Compared with `CCOc1cc(C(=O)N(C)[C@H](CO)c2cncc3cn[nH]c23)ccc1-c1cccc(Cl)c1` [Compound 004], `CCOc1cc(C(=O)N(C)[C@H](C[C@H](C)O)c2cncc3cn[nH]c23)ccc1-c1cccc(Cl)c1` [Compound 008] is higher in IC50: less than 0.1 µM for the first, 1 to 15 µM for the second.

First: CCOc1cc(C(=O)N(C)[C@H](CO)c2cncc3cn[nH]c23)ccc1-c1ccccc1 [Compound 005]
Second: CCOc1cc(C(=O)N(C)[C@@H](CCO)c2cncc3cn[nH]c23)ccc1-c1ccccc1 [Compound 010]
The IC50 of the first is lower: less than 0.1 µM for the first, 1 to 15 µM for the second. The first is the more potent here.

First: CN(C(=O)c1ccc(-c2cccc(Cl)c2)c(OC2CC2)c1)[C@H](CO)c1cncc2cn[nH]c12 [Compound 006, (S)-3′-chloro-2-cyclopropoxy-N-(2-hydroxy-1-(1H-pyrazolo[4,3-c]pyridin-7-yl)ethyl)-N-methyl-[1,1′-biphenyl]-4-carboxamide]
Second: CN(C(=O)c1ccc(-c2cccc(Cl)c2)c(OC2CC2)c1)[C@@H](CCO)c1cncc2cn[nH]c12 [Compound 012]
The IC50 of the first is lower: less than 0.1 µM for the first, 0.1 to 0.5 µM for the second.

First: CN(C(=O)c1ccc(-c2cccc(F)c2)c(OC2CC2)c1)[C@@H](CCO)c1cncc2cn[nH]c12 [Compound 011]
Second: Cc1ncc([C@H](CCO)N(C)C(=O)c2ccc(-c3cccc(F)c3)c(OC3CC3)c2)c2[nH]ncc12 [Compound 031]
The IC50 of the first is lower: 1 to 15 µM for the first, greater than 15 µM for the second. The first is the more potent here.

`CCOc1cc(C(=O)N(C)[C@H](COC)c2cncc3cn[nH]c23)ccc1-c1cccc(F)c1` [Compound 013] and `CCOc1cc(C(=O)N(C)[C@H](CCOC)c2cncc3cn[nH]c23)ccc1-c1cccc(F)c1` [Compound 015] cannot be ordered by IC50: less than 0.1 µM for the first, less than 0.1 µM for the second.

Going from `CCOc1cc(C(=O)N(C)[C@H](COC)c2cncc3cn[nH]c23)ccc1-c1cccc(Cl)c1` [Compound 014] to `CCOc1cc(C(=O)N(C)[C@H](CCOC)c2cncc3cn[nH]c23)ccc1-c1cccc(Cl)c1` [Compound 016], the IC50 rises from less than 0.1 µM to greater than 15 µM.

`CCOc1cc(C(=O)N(C)[C@H](CO)c2cnc(C)c3cn[nH]c23)ccc1-c1cccc(F)c1` [Compound 017] and `CCOc1cc(C(=O)N(C)[C@@H](CO)c2cnc(C)c3cn[nH]c23)ccc1-c1cccc(F)c1` [Compound 027] cannot be ordered by IC50: less than 0.1 µM for the first, less than 0.1 µM for the second.

Compared with `CCOc1cc(C(=O)N(C)[C@H](CO)c2cnc(C)c3cn[nH]c23)ccc1-c1cc(F)cc(F)c1` [Compound 018], `CCOc1cc(C(=O)N(C)[C@H](CO)c2cnc(C)c3cn[nH]c23)ccc1-c1cc(C)cc(F)c1` [Compound 021] is higher in IC50: less than 0.1 µM for the first, 0.1 to 0.5 µM for the second. The first is the more potent here.

`CCOc1cc(C(=O)N(C)[C@H](CO)c2cnc(C)c3cn[nH]c23)ccc1-c1cccc(Cl)c1` [Compound 019] and `CCOc1cc(C(=O)N(C)[C@@H](CCO)c2cnc(C)c3cn[nH]c23)ccc1-c1cccc(Cl)c1` [Compound 029] cannot be ordered by IC50: less than 0.1 µM for the first, less than 0.1 µM for the second.

First: CCOc1cc(C(=O)N(C)[C@H](CO)c2cnc(C)c3cn[nH]c23)ccc1-c1ccccc1 [Compound 020]
Second: CCOc1cc(C(=O)N(C)[C@@H](CCO)c2cnc(C)c3cn[nH]c23)ccc1-c1ccccc1 [Compound 028]
The IC50 of the first is lower: 0.1 to 0.5 µM for the first, greater than 15 µM for the second. The first is the more potent here.

First: Cc1ncc([C@@H](CO)N(C)C(=O)c2ccc(-c3cccc(F)c3)c(OC3CC3)c2)c2[nH]ncc12 [Compound 022]
Second: CCc1ncc([C@@H](CO)N(C)C(=O)c2ccc(-c3cccc(F)c3)c(OC3CC3)c2)c2[nH]ncc12 [Compound 034]
The IC50 of the first is lower: less than 0.1 µM for the first, greater than 15 µM for the second. The first is the more potent here.

`CCOc1cc(C(=O)N(C)[C@@H](c2cnc(C)c3cn[nH]c23)[C@@H](C)O)ccc1-c1cccc(Cl)c1` [Compound 024] and `CCOc1cc(C(=O)N(C)[C@H](CO)c2cnc(CO)c3cn[nH]c23)ccc1-c1cccc(Cl)c1` [Compound 036] cannot be ordered by IC50: less than 0.1 µM for the first, less than 0.1 µM for the second.

Compared with `Cc1ncc([C@@H](CCO)N(C)C(=O)c2ccc(-c3cccc(Cl)c3)c(OC3CC3)c2)c2[nH]ncc12` [Compound 026], `CCOc1cc(C(=O)N(C)[C@@H](CCO)c2cnc(C)c3cn[nH]c23)ccc1-c1cccc(C#N)c1` [Compound 030] is higher in IC50: less than 0.1 µM for the first, greater than 15 µM for the second.

First: CCOc1cc(C(=O)N(C)[C@H](CO)c2cnc(CC)c3cn[nH]c23)ccc1-c1cc(C)cc(F)c1 [Compound 032]
Second: CCOc1cc(C(=O)N(C)[C@H](CO)c2cnc(CC)c3cn[nH]c23)ccc1-c1cccc(F)c1 [Compound 033]
The IC50 of the first is higher: 0.1 to 0.5 µM for the first, less than 0.1 µM for the second.

`CCc1ncc([C@@H](CO)N(C)C(=O)c2ccc(-c3cc(F)cc(F)c3)c(OC3CC3)c2)c2[nH]ncc12` [Compound 035] and `CCOc1cc(C(=O)N(C)[C@H](CO)c2cnc(CO)c3cn[nH]c23)ccc1-c1cccc(F)c1` [Compound 037] cannot be ordered by IC50: less than 0.1 µM for the first, less than 0.1 µM for the second.

First: CCOc1cc(C(=O)N(C)[C@H](CCN)c2cncc3cn[nH]c23)ccc1-c1cccc(F)c1 [Compound 038]
Second: CCOc1cc(C(=O)N(C)[C@H](CCNC)c2cncc3cn[nH]c23)ccc1-c1cccc(F)c1 [Compound 039]
The IC50 of the first is lower: less than 0.1 µM for the first, 1 to 15 µM for the second.

`CCOc1cc(C(=O)N(CCO)Cc2cncc3cn[nH]c23)ccc1-c1cccc(F)c1` [Compound 041] and `CCOc1cc(C(=O)N(CCO)Cc2cncc3cn[nH]c23)ccc1-c1cccc(Cl)c1` [Compound 042] cannot be ordered by IC50: less than 0.1 µM for the first, less than 0.1 µM for the second.

`CCOc1cc(C(=O)N(CCO)Cc2cnc(N)c3cn[nH]c23)ccc1-c1cccc(C#N)c1` [Compound 043] and `CCOc1cc(C(=O)N(CCO)Cc2cnc(NC)c3cn[nH]c23)ccc1-c1cccc(C#N)c1` [Compound 044] fall in the same range of IC50: 0.1 to 0.5 µM for the first, 0.1 to 0.5 µM for the second.

First: CCOc1cc(C(=O)N(Cc2cnc(C)c3cn[nH]c23)C2CC2O)ccc1-c1cccc(F)c1 (centres unmarked) [Compound 045]
Second: CCOc1cc(C(=O)N(CCO)Cc2cnc(N)c3cn[nH]c23)ccc1-c1cccc(F)c1 [Compound 047]
The IC50 of the first is lower: less than 0.1 µM for the first, 0.1 to 0.5 µM for the second. The first is the more potent here.

`CCOc1cc(C(=O)N(CCO)Cc2cnc(N)c3cn[nH]c23)ccc1-c1cccc(Cl)c1` [Compound 046] and `CCOc1cc(C(=O)N(CCO)Cc2cnc(NC)c3cn[nH]c23)ccc1-c1cccc(Cl)c1` [Compound 049] cannot be ordered by IC50: less than 0.1 µM for the first, less than 0.1 µM for the second.

First: CCOc1cc(C(=O)N(CCO)Cc2cnc(NC)c3cn[nH]c23)ccc1-c1cccc(F)c1 [Compound 048]
Second: CCOc1cc(C(=O)N(CCO)Cc2cnc(CNC)c3cn[nH]c23)ccc1-c1cccc(F)c1 [Compound 050]
The IC50 of the first is lower: less than 0.1 µM for the first, 1 to 15 µM for the second.
